Measured values as given in patent US20250154193A1, “STEROID COMPOUND, AND PREPARATION METHOD THEREFOR AND APPLICATION THEREOF” (CHOLESGEN (SHANGHAI) CO., LTD., priority 2022, published 2025).

Legend:
Ldlr−/− mice [1] = assay: AMLN diet-induced fatty liver model: liver tissue section analysis; format: in vivo; settings: 30 mg/kg/day, 8 weeks
Procedure: Hematoxylin-eosin staining: The extracted liver was fixed in 4% paraformaldehyde at 4° C., embedded in paraffin, sectioned using a paraffin microtome (Leica RM2235) with a section thickness of […], dewaxed, rehydrated, and stained with Hematoxylin-eosin staining kits ([…]. 6,765,001, 6,766,010, Thermo Scientific). The images were captured with an Olympus VS 120 glass microscope, and quantified using ImageJ software. Oil Red 0 staining: The liver was embedded in OCT embedding medium (Leica), sectioned to a thickness of 7 μm using a cryostat microtome (Leica CM1950), stained with Oil Red 0 (00625, Sigma). The images were captured with an Olympus VS 120 glass microscope, and quantified using ImageJ software. Sirius Red collagen staining: Liver paraffin sections were dewaxed, rehydrated, and stained with Sirius Red staining kit (ab150681, Abcam) according to the manufacturer's instructions. Immunofluorescence staining: The liver was embedded in OCT embedding medium (Leica) and sectioned to a thickness of 7 μm using a cryostat microtome (Leica CM1950). Cryostat sections were stained with anti-F4/80 rat monoclonal antibody (14-4801-85, Invitrogen, 1:100) and Alexa Fluor 488-conjugated goat anti-rat IgG secondary antibody (A-11006, Invitrogen, 1:500), and the nuclei were specifically stained with DAPI (Sigma) 30. After staining and sealing, the images were captured using a spinning disk confocal microscope (Nikon CSU-W1 SoRa), and quantified using ImageJ software. Polarized light imaging of cholesterol crystals: Cryostat sections were stained with F4/80 and DAPI. The images were captured using a spinning disk confocal microscope (Nikon CSU-W1 SoRa) equipped with a polarized light filter, and quantified using ImageJ software. Male C57BL/6J mice and male Ldlr^−/− mice (TOO1464, Jiangsu GemPharmatech Co., Ltd.) at 8 weeks of age were purchased, grouped, fed with different diets, and treated with different drugs. The mice were randomly divided into 4 groups with 8 to 9 mice in each group: One group consisted of C57BL/6J wild-type mice, which was the chow diet (CD) vehicle control group. The other three groups consisted of Ldlr^−/− knockout mice, including chow diet (CD) vehicle control group, AMLN diet (containing […], 22% fructose, and 2% cholesterol) vehicle control group, and AMLN diet combined with 25-hydroxylanosterol administration group (25-hydroxylano sterol was administered at a concentration of 30 mg/kg/day). The mice in four groups were intragastrically administered once a day, during which the changes in food intake and body weight of the mice in different treatment groups were counted. After 8 weeks, blood and liver samples were collected from the mice to analyze blood lipids, liver lipids, and liver damage phenotypes. Furthermore, we performed various staining or immunohistochemical procedures on liver tissue sections from the mice in each group to analyze the phenotypic changes in hepatic lipid accumulation and fatty liver. […] FIGS. 14 to 18 show the results of Oil Red O staining and quantification of liver sections of mice: 25-hydroxylanosterol reduced lipid droplets in the liver. FIGS. 19 to 23 show the results of Sirius Red staining and quantification of liver sections of mice: 25-hydroxylanosterol reduced fibrosis in the liver. FIGS. 24 to 29 show the results of F4/80 immunostaining and quantification of liver sections of mice as well as the results of imaging and quantification of polarized light imaging indicating cholesterol crystals: 25-hydroxylanosterol reduced the aggregation of Kupffer cells and formation of cholesterol crystals in the liver. In FIGS. 9 to 29, quantitative analysis was performed using ImageJ software, and data are represented as mean±standard deviation. P values were calculated using one-way ANOVA; * indicates P<0.05; ** indicates P<0.01; *** indicates P<0.001.

Ldlr−/− mice [2] = assay: Sudan IV staining of atherosclerotic plaques of the aortic tree; format: in vivo; settings: AMLN diet, intragastrically once a day, 8 weeks, vs control group
Excerpt: After the administration experiment in mice, the aorta was isolated and fixed in 4% PFA. Perivascular adipose tissues were removed with ophthalmic forceps under a stereo microscope, stained with Sudan IV, and atherosclerotic plaques were washed in 70% ethanol. After staining, the aortic tree was imaged using a ZEISS Axio Zoom.V16 stereo microscope. Atherosclerotic lesions were quantified using ImageJ software.
AMLN-fed Ldlr^−/− mice also served as a common model for atherosclerosis, allowing simultaneous study of both fatty liver and atherosclerosis. Male Ldlr^−/− mice at 8 weeks of age were fed with AMLN diet and intragastrically administered once a day for a total of 8 weeks. After the mice were euthanized, the aorta was isolated and fixed in 4% paraformaldehyde. Perivascular adipose tissues were removed under a stereo microscope, stained with Sudan IV, and rinsed with 70% ethanol. The aortic tree was imaged using a stereo microscope (Axio Zoom.V16, ZEISS, Germany). Atherosclerotic plaques were quantified using ImageJ software.

C[C@H](CCCC(C)(C)O)[C@H]1CC[C@@]2(C)C3=C(CC[C@]12C)[C@@]1(C)CC[C@H](O)C(C)(C)[C@@H]1CC3 [compound 68, (1R,3aR,5aR,7S,9aS,11aR)-1-[(2R)-6-hydroxy-6-methylheptan-2-yl]-3a,6,6,9a,11a-pentamethyl-2,3,3a,4,5,5a,6,7,8,9,9a,10,11,11a-tetradecahydro-1H-cyclopenta[1,2-a]phenanthren-7-ol]
significantly reduced: crown-like structure formed by Kupffer cells (F4/80 immunostaining) (Ldlr−/− mice [1]) | fibrotic phenotype of collagen fiber formation in liver sections (Sirius Red) (Ldlr−/− mice [1]) | number of cholesterol crystals in liver sections (polarized light imaging) (Ldlr−/− mice [1]) | accumulation of lipid droplets of neutral lipids in the liver (Oil Red O staining) (Ldlr−/− mice [1]; vs control group) | macrovesicular lipid droplets and vesicular degenerated hepatocytes in the liver (HE staining) (Ldlr−/− mice [1]; vs control group) | NAFLD activity scores (Ldlr−/− mice [1]; HE staining of liver sections) | formation and quantity of atherosclerotic plaques (Sudan IV staining of aortic tree) (Ldlr−/− mice [2])
